Values after ≈ are worked out from the molar mass of the structure shown.
Columns and labels:
[1] = test system: P. falciparum NF54 strain (sensitive to standard antimalarials); assay: semiautomated microdilution assay, [3H]-hypoxanthine incorporation, NF54 strain; assay type: cell-based, Plasmodium falciparum; conditions: NF54 strain, 72 h incubation
In short: (§1)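 Logit regression analysis was used to estimate IC50 values. Parasites were intraerythrocytic forms from asynchronous stock cultures, and compounds were tested by semiautomated microdilution.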

[2] = test system: P. falciparum K1 strain (Thailand resistant to chloroquine); assay: semiautomated microdilution assay, [3H]-hypoxanthine incorporation, K1 strain; assay type: cell-based, Plasmodium falciparum; conditions: K1 strain, 72 h incubation
In short: as §1

[3] = test system: ANKA strain of P. berghei; assay: single dose STI in vivo screen in infected mice; set-up: species or system Plasmodium berghei; conditions: for Activity (%) po / Activity (%) sc / Activity (%) SSVpo: percent reduction in parasitemia day 3 post-infection, mice; for Activity (%) po / Survival (days) po: single 10 mg/kg po in 3% ethanol and 7% Tween 80; for Activity (%) sc / Survival (days) sc: single 10 mg/kg sc in 3% ethanol and 7% Tween 80; for Activity (%) SSVpo: single po dose in standard suspending vehicle (SSV); for Survival (days) po / Survival (days) sc / Survival (days) SSVpo: untreated control 5.6 ± 0.3; for Survival (days) SSVpo: single po dose in SSV
In short: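 Groups of 3-5 Moro SPF or NMRI mice infected with the ANKA strain of P. berghei received a single dose of trioxolane on day one post-infection. The compound was given in 3% ethanol and 7% Tween 80 or in SSV (0.5% w/v CMC, 0.5% v/v benzyl alcohol, 0.4% v/v Tween 80, 0.9% w/v sodium chloride in water). Antimalarial activity was scored as percent reduction in parasitemia on day three and as survival time versus untreated controls. Survival to day 30 counted as cure.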

Structure (SMILES) | IC50 (ng/ml) NF54 [1] | IC50 (ng/ml) K1 [2] | Activity (%) po [3] [%] | Activity (%) sc [3] [%] | Activity (%) SSVpo [3] [%] | Survival (days) po [3] [days] | Survival (days) sc [3] [days] | Survival (days) SSVpo [3] [days] | Activity (%) po ([3]; 10 mg/kg) [%] | Activity (%) sc ([3]; 10 mg/kg) [%] | Survival (days) po ([3]; 10 mg/kg) [days] | Survival (days) sc ([3]; 10 mg/kg) [days]
CC1(C)CC(NC2CCC3(CC2)OOC2(O3)C3CC4CC(C3)CC2C4)CC(C)(C)N1 (stereo not drawn) [OZ171] | 1.4 ng/mL (≈ 0.00334 µM) | 1.3 ng/mL (≈ 0.00311 µM) | 98 | 99.94 | 85 | 9.0 | 9.7 | 7.0 |  |  |  | 
N=C(N)NN=C1CCC2(CC1)OOC1(O2)C2CC3CC(C2)CC1C3 (stereo not drawn) [OZ172] | 5.0 ng/mL (≈ 0.015 µM) | 3.5 ng/mL (≈ 0.0105 µM) | 68 | 100 | 82 | 8.0 | 10.3 | 10.3 |  |  |  | 
COCC(=O)N(Cc1ccccc1)C1CCC2(CC1)OOC1(O2)C2CC3CC(C2)CC1C3 (stereo not drawn) [OZ173] | 32 ng/mL (≈ 0.0725 µM) | 58 ng/mL (≈ 0.131 µM) | 15 | 80 | 0 | 7.0 | 9.7 | 6.7 |  |  |  | 
COCC(=O)N(C1CCCCC1)C1CCC2(CC1)OOC1(O2)C2CC3CC(C2)CC1C3 (stereo not drawn) [OZ174] | 34 ng/mL (≈ 0.0784 µM) | 27 ng/mL (≈ 0.0623 µM) | 0 | 90 | 15 | 6.7 | 10.3 | 7.3 |  |  |  | 
O=C(O)c1ccc(OC[C@H]2CC[C@]3(CC2)OOC2(O3)C3CC4CC(C3)CC2C4)cc1 (stereo partly drawn) [OZ176] | 35 ng/mL (≈ 0.0844 µM) | 25 ng/mL (≈ 0.0603 µM) | 11 | 24 | 18 | 7.0 | 7.0 | 7.7 |  |  |  | 
CS(=O)(=O)c1ccc([C@H]2CC[C@]3(CC2)OOC2(O3)C3CC4CC(C3)CC2C4)cc1 (stereo partly drawn) [OZ178] | 27 ng/mL (≈ 0.0645 µM) | 21 ng/mL (≈ 0.0502 µM) | 32 | 31 | 23 | 7.3 | 10.0 | 7.3 |  |  |  | 
CC1(C)COC(c2ccc([C@H]3CC[C@]4(CC3)OOC3(O4)C4CC5CC(C4)CC3C5)cc2)=N1 (stereo partly drawn) [OZ180] | 2.8 ng/mL (≈ 0.0064 µM) | 3.7 ng/mL (≈ 0.00846 µM) |  |  | 97 |  |  | 12.7 | 99.91 | 65 | 13.7 | 10.3
O=C(OCCn1ccnc1)C1CCC2(CC1)OOC1(O2)C2CC3CC(C2)CC1C3 (stereo not drawn) [OZ182] | 5.5 ng/mL (≈ 0.0137 µM) | 4.5 ng/mL (≈ 0.0112 µM) | 91 | 95 | 96 | 8.0 | 7.7 | 7.3 |  |  |  | 
O=C(NO)c1ccc([C@H]2CC[C@]3(CC2)OOC2(O3)C3CC4CC(C3)CC2C4)cc1 (stereo partly drawn) [OZ183] | 2.1 ng/mL (≈ 0.00526 µM) | 0.80 ng/mL (≈ 0.002 µM) | 65 | 81 | 19 | 6.0 | 8.3 | 6.0 |  |  |  | 
C1CC1CNC1CCC2(CC1)OOC1(O2)C2CC3CC(C2)CC1C3 (stereo not drawn) [OZ184] | 1.4 ng/mL (≈ 0.0042 µM) | 1.0 ng/mL (≈ 0.003 µM) | 54 | 97 | 59 | 6.7 | 8.7 | 7.0 |  |  |  | 
C1C2CC3CC1CC(C2)C31OOC2(CCC(NC3CC3)CC2)O1 (stereo not drawn) [OZ185] | 1.4 ng/mL (≈ 0.00438 µM) | 1.1 ng/mL (≈ 0.00344 µM) | 86 | 99.96 | 56 | 7.7 | 10.7 | 6.7 |  |  |  | 
COCC(=O)N[C@H]1CC[C@]2(CC1)OOC1(O2)C2CC3CC(C2)CC1C3 (stereo partly drawn) [OZ186] | >10/>10 ng/ml | >10/>10 ng/ml | 87 | 67 | 96 | 8.0 | 8.0 | 9.0 |  |  |  | 
CN(C)C(=O)N[C@H]1CC[C@]2(CC1)OOC1(O2)C2CC3CC(C2)CC1C3 (stereo partly drawn) [OZ187] | 6.8 ng/mL (≈ 0.0194 µM) | 4.0 ng/mL (≈ 0.0114 µM) | 77 | 77 | 94 | 7.7 | 7.0 | 10.0 |  |  |  | 
CN(C)S(=O)(=O)N1CCC2(CC1)OOC1(O2)C2CC3CC(C2)CC1C3 (stereo not drawn) [OZ190] | 1.0 ng/mL (≈ 0.00268 µM) | 0.16 ng/mL (≈ 0.00043 µM) | 98 | 2 | 78 | 8.7 | 5.7 | 7.7 |  |  |  | 
N=C(N)N1CCC2(CC1)OOC1(O2)C2CC3CC(C2)CC1C3 (stereo not drawn) [OZ191] | > 10 ng/mL | 6.0 ng/mL (≈ 0.0195 µM) | 7 | 17 | 5 | 5.7 | 6.0 | 5.7 |  |  |  | 
Fc1ccc(OC2CCC3(CC2)OOC2(O3)C3CC4CC(C3)CC2C4)cc1 (stereo not drawn) [OZ193] | 8.3 ng/mL (≈ 0.0222 µM) | 5.5 ng/mL (≈ 0.0147 µM) | 99.75 | 99.92 | 93 | 9.3 | 11.0 | 8.0 |  |  |  | 
O=C(O)CCC(=O)N[C@H]1CC[C@]2(CC1)OOC1(O2)C2CC3CC(C2)CC1C3 (stereo partly drawn) [OZ196] | >10/>10 ng/ml | >10/>10 ng/ml | 10 | 17 | 0 | 6.0 | 5.7 | 5.3 |  |  |  | 
O=C(O)c1cccc([C@H]2CC[C@]3(CC2)OOC2(O3)C3CC4CC(C3)CC2C4)c1 (stereo partly drawn) [OZ198] | >10/>10 ng/ml | >10/>10 ng/ml | 4 | 6 | 6 | 5.7 | 5.7 | 6.0 |  |  |  | 

Source: US6906205B2, “Spiro and dispiro 1,2,4-trioxolane antimalarials” (Medicines for Malaria Venture MMV, priority 2002, dated 2005)
